Measurements: article PMC6801739, “Antitumor Activity of a Novel Tyrosine Kinase Inhibitor AIU2001 Due to Abrogation of the DNA Damage Repair in Non-Small Cell Lung Cancer Cells” (International Journal of Molecular Sciences, 2019)

How the values were obtained:
[1] = test system: H1299 cells; test: MTT cell viability assay, single drugs and combinations, CI scores; assay type: cell-based, human
Description: (§1) Cell viability was assessed using the MTT colorimetric assay. Cells (1 × 10^3 cells/well) were seeded into 96-well plates and treated with the various concentrations of each compound or combination of two compounds. After five days of treatment, 10 μL MTT (0.5 mg/mL) was added, and further incubated for 3 h. After removal of the supernatant, the resultant pellet was dissolved in DMSO. The absorbance of the resultant formazan was measured at 540 nm using a plate reader (Multiskan EX; ThermoLabsystems, Waltham, MA, USA).
(§2) CI scores were calculated using the CompuSyn software by Chou (CompuSyn Inc., Paramus, NJ) based on cell viability after treatment with single- and paired-drug concentrations. The CI equation for two drugs was used: CI=(D)A/(Dx)A+(D)B/(Dx)B where (Dx)A is the concentration of drug A alone that inhibits x%, (Dx)B is the concentration of drug B alone that inhibits x%, (D)A or (D)B is the portion of drug A or drug B in the combination (D)A + (D)B that inhibits x%.

[2] = test system: A549 cells; test: as above; assay type: cell-based, human
Description: as §1, §2

[3] = biological target: T1, FGFR1 (Homo sapiens, UniProt P11362); test: Kinase profiling at 10 μM (Eurofins); assay type: biochemical; conditions: read-out: Inhibitory activity
T1 construct: purchased Eurofins Pharma Discovery (KinaseProfiler); IC50 values by Reaction Biology Corp

[4] = test system: H1299 cells; test: Immunoblot of cell cycle checkpoint proteins; assay type: cell-based, human; conditions: 5 μM, 6 h or 24 h
Description: (§3) Cell lysates were prepared by extracting proteins with TNN buffer (40 mM Tris-Cl pH 8.0, 0.2% NP-40, 120 mM NaCl) or radioimmunoprecipitation assay (RIPA) lysis buffer (Millipore, Billerica MA, USA) supplemented with a protease inhibitor cocktail (Thermo Fisher Scientific, Rockford, IL, USA). Equal amounts of proteins were separated using SDS-PAGE on 8–13% gels, and transferred to nitrocellulose membranes (Bio-Rad, Hercules, CA, USA). The membranes were blocked with 5% skim milk in Tris-buffered saline-Tween 20 (TBST) (150 mM NaCl, 10 mM Tris, 0.2% Tween20), followed by overnight incubation with primary antibodies at 4 °C. The blots were developed using peroxidase-conjugated secondary antibody and the immunoreactive proteins were visualized using enhanced chemiluminescence (ECL) reagents, according to the manufacturer’s recommendations (Amersham, GE Healthcare, Buckingamshire, UK). The protein bands were visualized using a digital imaging system (ImageQuant LAS 4000 mini; GE Healthcare, UK). The protein levels were analyzed using Image J software (National Institutes of Health, Bethesda, MD, USA). Experiments were repeated at least thrice.

[5] = test system: A549 cells; test: Immunoblot of cell cycle checkpoint proteins; assay type: cell-based, human; conditions: 5 μM
Description: as §3

[6] = biological target: T2, FAK (Homo sapiens, UniProt Q05397); test: Kinase profiling at 10 μM (Eurofins); assay type: biochemical; conditions: read-out: Inhibitory activity
T2 construct: purchased Eurofins Pharma Discovery (KinaseProfiler); IC50 values by Reaction Biology Corp

[7] = biological target: T3, CHK2 (Homo sapiens, UniProt O96017); test: Kinase profiling at 10 μM (Eurofins); assay type: biochemical; conditions: read-out: Inhibitory activity
T3 construct: purchased Eurofins Pharma Discovery (KinaseProfiler); IC50 values by Reaction Biology Corp

[8] = biological target: T4, CDK2/cyclinA (Homo sapiens, UniProt P24941); test: Kinase profiling at 10 μM (Eurofins); assay type: biochemical; conditions: read-out: Inhibitory activity
T4 construct: purchased Eurofins Pharma Discovery (KinaseProfiler); IC50 values by Reaction Biology Corp

[9] = biological target: T5, FLT4 (Homo sapiens, UniProt P35916); test: Kinase profiling at 10 μM (Eurofins); assay type: biochemical; conditions: read-out: Inhibitory activity
T5 construct: purchased Eurofins Pharma Discovery (KinaseProfiler); IC50 values by Reaction Biology Corp

[10] = biological target: T6, PKBα (Homo sapiens, UniProt P31749); test: Kinase profiling at 10 μM (Eurofins); assay type: biochemical; conditions: read-out: Inhibitory activity
T6 construct: purchased Eurofins Pharma Discovery (KinaseProfiler); IC50 values by Reaction Biology Corp

[11] = biological target: T7, c-KIT (V560G) (Homo sapiens, UniProt P10721, V560G); test: In vitro kinase assay, IC50 (Reaction Biology Corp.); assay type: biochemical
T7 construct: purchased Eurofins Pharma Discovery (KinaseProfiler); IC50 values by Reaction Biology Corp

[12] = test system: H1299 cells; test: Cell cycle analysis (PI, flow cytometry); assay type: cell-based, human; conditions: 5 μM
Description: (§4) Samples were collected at the indicated time points and fixed in 70% cold ethanol overnight. For cell cycle analysis, the fixed cells were treated with RNase for 20 min before addition of 50 μg/mL PI and analyzed using FACS Calibur™ (BD Biosciences, San Jose, CA, USA).

[13] = test system: A549 cells; test: Cell cycle analysis (PI, flow cytometry); assay type: cell-based, human; conditions: 5 μM
Description: as §4

[14] = biological target: T5, FLT4; test: In vitro kinase assay, IC50 (Reaction Biology Corp.); assay type: biochemical
[15] = biological target: T8, c-KIT (Homo sapiens, UniProt P10721); test: as above; assay type: biochemical
T8 construct: purchased Eurofins Pharma Discovery (KinaseProfiler); IC50 values by Reaction Biology Corp

[16] = biological target: T9, CK1γ1 (Homo sapiens, UniProt Q9HCP0); test: Kinase profiling at 10 μM (Eurofins); assay type: biochemical; conditions: read-out: Inhibitory activity
T9 construct: purchased Eurofins Pharma Discovery (KinaseProfiler); IC50 values by Reaction Biology Corp

[17] = biological target: T10, CDK1/cyclinB (Homo sapiens, UniProt P06493); test: Kinase profiling at 10 μM (Eurofins); assay type: biochemical; conditions: read-out: Inhibitory activity
T10 construct: purchased Eurofins Pharma Discovery (KinaseProfiler); IC50 values by Reaction Biology Corp

[18] = biological target: T11, cSRC (Homo sapiens, UniProt P12931); test: Kinase profiling at 10 μM (Eurofins); assay type: biochemical; conditions: read-out: Inhibitory activity
T11 construct: purchased Eurofins Pharma Discovery (KinaseProfiler); IC50 values by Reaction Biology Corp

[19] = biological target: T12, PIM-1 (Homo sapiens, UniProt P11309); test: Kinase profiling at 10 μM (Eurofins); assay type: biochemical; conditions: read-out: Inhibitory activity
T12 construct: purchased Eurofins Pharma Discovery (KinaseProfiler); IC50 values by Reaction Biology Corp

[20] = biological target: T13, ZAP-70 (Homo sapiens, UniProt P43403); test: Kinase profiling at 10 μM (Eurofins); assay type: biochemical; conditions: read-out: Inhibitory activity
T13 construct: purchased Eurofins Pharma Discovery (KinaseProfiler); IC50 values by Reaction Biology Corp

[21] = biological target: T14, FLT3 (Homo sapiens, UniProt P36888); test: Kinase profiling at 10 μM (Eurofins); assay type: biochemical; conditions: read-out: Inhibitory activity
T14 construct: purchased Eurofins Pharma Discovery (KinaseProfiler); IC50 values by Reaction Biology Corp

[22] = biological target: FLT3(D835Y) (Homo sapiens, UniProt P36888, D835Y); test: In vitro kinase assay, IC50 (Reaction Biology Corp.); assay type: biochemical; design: purchased Reaction Biology Corp. (Malvern, PA, USA)

T5 sequence (P35916 25-1363): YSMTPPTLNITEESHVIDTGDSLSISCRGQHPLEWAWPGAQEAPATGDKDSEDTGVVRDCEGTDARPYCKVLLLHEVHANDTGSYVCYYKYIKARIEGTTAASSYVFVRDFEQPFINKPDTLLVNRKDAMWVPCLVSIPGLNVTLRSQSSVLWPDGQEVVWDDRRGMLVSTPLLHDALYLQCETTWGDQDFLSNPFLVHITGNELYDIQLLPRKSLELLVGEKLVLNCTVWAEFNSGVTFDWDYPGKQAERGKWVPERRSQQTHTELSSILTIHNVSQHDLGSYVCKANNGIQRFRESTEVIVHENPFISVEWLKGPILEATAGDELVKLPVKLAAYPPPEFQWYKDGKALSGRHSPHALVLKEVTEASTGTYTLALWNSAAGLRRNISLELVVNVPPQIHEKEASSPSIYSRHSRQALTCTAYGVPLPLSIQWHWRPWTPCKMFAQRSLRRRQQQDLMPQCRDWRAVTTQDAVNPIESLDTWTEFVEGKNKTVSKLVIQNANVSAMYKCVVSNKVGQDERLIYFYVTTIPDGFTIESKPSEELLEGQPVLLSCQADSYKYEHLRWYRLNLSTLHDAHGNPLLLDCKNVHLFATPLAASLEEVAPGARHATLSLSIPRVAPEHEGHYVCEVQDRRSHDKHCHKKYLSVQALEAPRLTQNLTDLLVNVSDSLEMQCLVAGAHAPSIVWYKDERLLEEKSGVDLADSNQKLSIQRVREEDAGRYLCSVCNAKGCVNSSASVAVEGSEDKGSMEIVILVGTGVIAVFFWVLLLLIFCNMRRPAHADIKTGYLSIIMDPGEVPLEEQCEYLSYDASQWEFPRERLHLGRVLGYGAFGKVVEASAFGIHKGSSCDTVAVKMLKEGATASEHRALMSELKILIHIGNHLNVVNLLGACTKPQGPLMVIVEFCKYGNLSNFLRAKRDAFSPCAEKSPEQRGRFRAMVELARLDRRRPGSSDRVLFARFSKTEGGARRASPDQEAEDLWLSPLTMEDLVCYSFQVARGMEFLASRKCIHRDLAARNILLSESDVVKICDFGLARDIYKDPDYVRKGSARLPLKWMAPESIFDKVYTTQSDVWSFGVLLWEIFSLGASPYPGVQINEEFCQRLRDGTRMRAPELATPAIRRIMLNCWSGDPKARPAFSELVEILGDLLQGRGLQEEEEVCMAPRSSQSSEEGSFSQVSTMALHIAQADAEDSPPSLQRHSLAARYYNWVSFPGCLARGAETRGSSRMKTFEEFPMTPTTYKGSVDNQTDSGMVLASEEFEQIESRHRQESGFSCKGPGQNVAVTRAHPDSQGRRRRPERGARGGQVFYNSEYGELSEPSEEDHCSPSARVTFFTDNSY
T6 sequence (P31749 whole entry): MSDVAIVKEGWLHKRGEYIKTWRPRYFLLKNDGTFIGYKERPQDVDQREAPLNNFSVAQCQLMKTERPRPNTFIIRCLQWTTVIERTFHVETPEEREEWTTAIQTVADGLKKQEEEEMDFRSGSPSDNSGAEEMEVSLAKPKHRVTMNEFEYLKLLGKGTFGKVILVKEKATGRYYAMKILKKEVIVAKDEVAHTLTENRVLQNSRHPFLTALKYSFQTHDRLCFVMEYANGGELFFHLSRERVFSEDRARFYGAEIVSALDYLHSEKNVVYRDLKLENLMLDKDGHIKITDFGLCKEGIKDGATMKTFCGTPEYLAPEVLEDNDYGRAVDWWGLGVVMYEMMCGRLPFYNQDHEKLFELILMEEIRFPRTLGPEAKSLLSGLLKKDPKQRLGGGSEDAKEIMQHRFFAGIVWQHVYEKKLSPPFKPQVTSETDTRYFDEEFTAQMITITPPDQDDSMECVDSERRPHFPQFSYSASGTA
T7 sequence (P10721 26-976 V560G): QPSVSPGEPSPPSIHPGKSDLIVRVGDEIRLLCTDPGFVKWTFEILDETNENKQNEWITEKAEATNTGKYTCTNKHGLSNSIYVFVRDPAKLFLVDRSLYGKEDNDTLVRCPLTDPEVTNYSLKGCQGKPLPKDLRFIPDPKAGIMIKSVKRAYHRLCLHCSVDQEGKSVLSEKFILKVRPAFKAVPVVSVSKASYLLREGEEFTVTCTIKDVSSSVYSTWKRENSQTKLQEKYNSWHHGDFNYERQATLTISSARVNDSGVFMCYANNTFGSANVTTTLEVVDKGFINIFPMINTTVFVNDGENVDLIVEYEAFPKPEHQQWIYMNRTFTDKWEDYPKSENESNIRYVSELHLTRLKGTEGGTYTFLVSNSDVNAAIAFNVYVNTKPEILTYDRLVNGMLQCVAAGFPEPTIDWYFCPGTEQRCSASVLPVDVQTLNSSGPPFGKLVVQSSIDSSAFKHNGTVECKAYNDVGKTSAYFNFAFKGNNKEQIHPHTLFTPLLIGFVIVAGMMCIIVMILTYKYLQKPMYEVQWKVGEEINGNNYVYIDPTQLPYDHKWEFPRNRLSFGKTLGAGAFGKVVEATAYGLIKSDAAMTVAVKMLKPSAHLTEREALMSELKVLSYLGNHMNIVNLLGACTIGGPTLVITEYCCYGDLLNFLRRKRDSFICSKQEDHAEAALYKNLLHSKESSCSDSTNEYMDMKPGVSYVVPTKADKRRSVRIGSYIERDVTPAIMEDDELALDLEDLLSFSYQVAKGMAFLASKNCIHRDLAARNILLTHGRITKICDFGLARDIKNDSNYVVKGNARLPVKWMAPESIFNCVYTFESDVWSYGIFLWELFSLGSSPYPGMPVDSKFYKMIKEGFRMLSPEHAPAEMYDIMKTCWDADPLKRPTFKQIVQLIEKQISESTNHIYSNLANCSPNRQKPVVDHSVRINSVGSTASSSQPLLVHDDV
T1 sequence (P11362 22-822): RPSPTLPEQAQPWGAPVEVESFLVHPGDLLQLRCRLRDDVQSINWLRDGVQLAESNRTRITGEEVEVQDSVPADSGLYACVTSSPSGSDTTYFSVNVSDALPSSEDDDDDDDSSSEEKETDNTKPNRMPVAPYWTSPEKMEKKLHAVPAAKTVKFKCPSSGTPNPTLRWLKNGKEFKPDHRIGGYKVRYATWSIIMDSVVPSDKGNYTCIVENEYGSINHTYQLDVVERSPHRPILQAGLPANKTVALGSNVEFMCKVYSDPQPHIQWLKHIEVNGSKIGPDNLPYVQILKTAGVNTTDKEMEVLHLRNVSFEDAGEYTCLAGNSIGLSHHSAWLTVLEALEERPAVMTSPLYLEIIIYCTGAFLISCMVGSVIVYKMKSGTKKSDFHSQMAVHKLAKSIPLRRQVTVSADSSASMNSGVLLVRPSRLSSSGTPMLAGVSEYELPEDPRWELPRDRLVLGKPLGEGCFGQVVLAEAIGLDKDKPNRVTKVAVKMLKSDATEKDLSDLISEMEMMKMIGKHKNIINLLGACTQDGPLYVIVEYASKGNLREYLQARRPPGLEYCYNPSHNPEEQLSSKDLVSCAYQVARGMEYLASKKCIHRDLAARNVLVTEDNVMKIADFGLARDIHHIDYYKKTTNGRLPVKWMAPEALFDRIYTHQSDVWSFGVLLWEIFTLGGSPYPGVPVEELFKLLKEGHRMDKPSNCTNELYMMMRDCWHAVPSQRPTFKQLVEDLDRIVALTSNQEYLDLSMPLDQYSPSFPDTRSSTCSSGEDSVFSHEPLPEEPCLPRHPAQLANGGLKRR
T2 sequence (Q05397 whole entry): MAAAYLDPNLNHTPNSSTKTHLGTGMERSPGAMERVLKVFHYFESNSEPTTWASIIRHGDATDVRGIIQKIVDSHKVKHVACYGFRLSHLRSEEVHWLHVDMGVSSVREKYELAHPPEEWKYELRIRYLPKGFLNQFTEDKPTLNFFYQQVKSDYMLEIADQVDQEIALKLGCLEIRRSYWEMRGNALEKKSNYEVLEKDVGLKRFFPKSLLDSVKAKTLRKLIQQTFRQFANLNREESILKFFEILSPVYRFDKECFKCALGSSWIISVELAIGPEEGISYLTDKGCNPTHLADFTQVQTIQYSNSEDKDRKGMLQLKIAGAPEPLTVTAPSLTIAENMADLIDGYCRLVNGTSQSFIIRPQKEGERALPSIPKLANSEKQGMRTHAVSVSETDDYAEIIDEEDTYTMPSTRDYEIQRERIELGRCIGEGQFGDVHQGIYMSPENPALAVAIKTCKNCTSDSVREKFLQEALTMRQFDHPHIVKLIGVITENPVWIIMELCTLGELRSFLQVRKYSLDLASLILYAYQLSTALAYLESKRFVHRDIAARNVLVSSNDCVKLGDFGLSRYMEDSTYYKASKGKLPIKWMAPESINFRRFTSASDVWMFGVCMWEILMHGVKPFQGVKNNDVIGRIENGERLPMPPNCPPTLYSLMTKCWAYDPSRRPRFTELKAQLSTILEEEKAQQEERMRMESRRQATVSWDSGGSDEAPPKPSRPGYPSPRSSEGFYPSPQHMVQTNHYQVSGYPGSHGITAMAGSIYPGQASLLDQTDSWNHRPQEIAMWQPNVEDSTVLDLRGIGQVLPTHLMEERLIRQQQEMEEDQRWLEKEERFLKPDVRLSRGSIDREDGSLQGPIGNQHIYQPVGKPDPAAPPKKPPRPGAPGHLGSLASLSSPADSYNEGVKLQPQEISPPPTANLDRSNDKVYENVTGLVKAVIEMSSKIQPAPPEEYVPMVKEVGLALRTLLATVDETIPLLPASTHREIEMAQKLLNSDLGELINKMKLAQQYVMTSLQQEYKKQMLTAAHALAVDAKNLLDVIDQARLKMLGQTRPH
T8 sequence (P10721 26-976): as the sequence (P10721 26-976 V560G) above, with G535V counted along it
T9 sequence (Q9HCP0 whole entry): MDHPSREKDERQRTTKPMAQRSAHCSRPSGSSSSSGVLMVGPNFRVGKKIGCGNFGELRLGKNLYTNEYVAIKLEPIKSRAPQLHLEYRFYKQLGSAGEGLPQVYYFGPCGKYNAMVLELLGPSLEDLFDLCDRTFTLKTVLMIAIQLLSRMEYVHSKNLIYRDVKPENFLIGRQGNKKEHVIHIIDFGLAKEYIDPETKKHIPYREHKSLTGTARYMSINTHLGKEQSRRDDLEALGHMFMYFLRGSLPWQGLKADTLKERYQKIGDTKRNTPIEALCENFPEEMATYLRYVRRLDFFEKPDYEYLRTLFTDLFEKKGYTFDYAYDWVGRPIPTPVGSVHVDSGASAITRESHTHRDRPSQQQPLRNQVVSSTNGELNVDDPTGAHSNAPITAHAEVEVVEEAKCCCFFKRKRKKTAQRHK

With `Brc1ccc(-c2cnc(Nc3cccc4ccccc34)o2)cc1` [AIU2001, 5-(4-bromophenyl)-N-(naphthalen-1-yl) oxazol-2-amine] the viability at 0.16 µM ([1]; Homo sapiens, NCI-H1299, 120 h, Olaparib 0, AIU2001 0.16 μM, 5 days, panel A, read-out: Relative viability) was 101%, the viability at 0.32 µM ([1]; Homo sapiens, NCI-H1299, 120 h, Olaparib 0, AIU2001 0.32 μM, 5 days, panel A, read-out: Relative viability) was 93.7% and the viability at 0.63 µM ([1]; Homo sapiens, NCI-H1299, 120 h, Olaparib 0, AIU2001 0.63 μM, 5 days, panel A, read-out: Relative viability) was 94.2%. For the same compound, the viability at 1.25 µM ([1]; Homo sapiens, NCI-H1299, 120 h, Olaparib 0, AIU2001 1.25 μM, 5 days, panel A, read-out: Relative viability) was 90%, the viability at 2.5 µM ([1]; Homo sapiens, NCI-H1299, 120 h, Olaparib 0, AIU2001 2.50 μM, 5 days, panel A, read-out: Relative viability) was 65.5% and the viability at 5 µM ([1]; Homo sapiens, NCI-H1299, 120 h, Olaparib 0, AIU2001 5.00 μM, 5 days, panel A, read-out: Relative viability) was 26.2%. For the same compound, the viability at 10 µM ([1]; Homo sapiens, NCI-H1299, 120 h, Olaparib 0, AIU2001 10.00 μM, 5 days, panel A, read-out: Relative viability) was 15.4%, the “Growth inhibition” value ([1]; MTT, five days) was “significantly inhibited the growth” and the viability at 0.16 µM ([2]; Homo sapiens, 120 h, Olaparib 0, AIU2001 0.16 μM, 5 days, panel A, read-out: Relative viability) was 95.1%. For the same compound, the viability at 0.32 µM ([2]; Homo sapiens, 120 h, Olaparib 0, AIU2001 0.32 μM, 5 days, panel A, read-out: Relative viability) was 95%, the viability at 0.63 µM ([2]; Homo sapiens, 120 h, Olaparib 0, AIU2001 0.63 μM, 5 days, panel A, read-out: Relative viability) was 89% and the viability at 1.25 µM ([2]; Homo sapiens, 120 h, Olaparib 0, AIU2001 1.25 μM, 5 days, panel A, read-out: Relative viability) was 86.5%. It also gave a viability at 2.5 µM ([2]; Homo sapiens, 120 h, Olaparib 0, AIU2001 2.50 μM, 5 days, panel A, read-out: Relative viability) of 53.6%, a viability at 5 µM ([2]; Homo sapiens, 120 h, Olaparib 0, AIU2001 5.00 μM, 5 days, panel A, read-out: Relative viability) of 31.6% and a viability at 10 µM ([2]; Homo sapiens, 120 h, Olaparib 0, AIU2001 10.00 μM, 5 days, panel A, read-out: Relative viability) of 21.1%. The “Growth inhibition” value ([2]; MTT, five days) was “significantly inhibited the growth”, the inhibition at 10 µM [3] was 1% and the CDC25C level [4] was “decrease”. For the same compound, the “Cyclin B1 level” value [4] was “significant increase”, the “Phosphorylated histone H3 level” value [4] was “significant increase” and the “Phosphorylation of CHK1 at Ser345” value [4] was “increased the phosphorylation”. The “Phosphorylation of CHK2 at Thr68” value [4] was “increased the phosphorylation”, the “Expression of p21” value ([5]; A549 (p53 wild-type)) was “increased in A549 cells” and the “Expression of phosphorylated p53” value ([5]; A549 (p53 wild-type)) was “increased in A549 cells”. The CDC25C level ([5]; A549, 6 h or 24 h) was “decrease”, the “Cyclin B1 level” value ([5]; A549, 6 h or 24 h) was “significant increase” and the “Phosphorylated histone H3 level” value ([5]; A549, 6 h or 24 h) was “significant increase”. For the same compound, the “Phosphorylation of CHK1 at Ser345” value ([5]; A549, 6 h or 24 h) was “increased the phosphorylation”, the “Phosphorylation of CHK2 at Thr68” value ([5]; A549, 6 h or 24 h) was “increased the phosphorylation” and the inhibition at 10 µM [6] was 16%. The inhibition at 10 µM [7] was 14%, the inhibition at 10 µM [8] was 39% and the inhibition at 10 µM [9] was no less than 75%. For the same compound, the inhibition at 10 µM [10] was 24%, the IC50 [11] was 53.4 nM and the Cell cycle effect ([12]; 3 h, 6 h or 24 h) was “G2/M phase arrest”. The “Cells in the sub-G1 phase” value ([12]; 24 h) was 23.1%, the Cell cycle effect ([13]; 3 h, 6 h or 24 h) was “G2/M phase arrest” and the “Cells in the sub-G1 phase” value ([13]; 24 h) was 3.3%. The IC50 [14] was 786 nM, the IC50 [15] was 223 nM and the inhibition at 10 µM [16] was 37%. It also gave an inhibition at 10 µM [17] of 38%, an inhibition at 10 µM [18] of 22% and an inhibition at 10 µM [19] of 37%. For the same compound, the inhibition at 10 µM [20] was 0%, the inhibition at 10 µM [21] was no less than 75% and the IC50 [22] was 108 nM.
